Reference: US12318457B2, “Oligosaccharide linker, linker-payload comprising the same and glycan chain-remodeled antibody-drug conjugate, preparation methods and uses thereof” (GENEQUANTUM HEALTHCARE (SUZHOU) CO., LTD., priority 2022, dated 2025)
Read-outs that look alike come from different tables or passages of the source. Non-standard residues stand in square brackets, D forms with d. Residues, ends and D or L forms follow the SMILES beside them. *: point of attachment. Dolaproine = CO[C@@H]([C@@H]1CCCN1)[C@@H](C)C(=O)O; Dil = CC[C@H](C)[C@H](NC)[C@@H](CC(=O)O)OC; X1 = C[C@@H](N*)[C@@H](O)c1ccccc1; NMeV = CN[C@H](C(=O)O)C(C)C

How the values were obtained:
Assay type in all cases: cell-based
[1] = system: human liver cancer cells HepG2; assay: Tumor cell proliferation inhibition (CellTiter Glo), HepG2
Protocol: (§1) 1) ErbB2/HER2-positive human breast cancer cells BT-474, ErbB2/HER2-positive human gastric cancer cells NCI-N87 and ErbB2/HER2-negative human liver cancer cells HepG2 were inoculated into a 96-well cell plate at 100 μL/well (1000 to 10000 cells), and incubated overnight in a cell incubator under the conditions of 37° C., 5% CO2, 95% air and 100% humidity.
(§2) 3) The cell plate was removed from the 37° C. cell incubator, and equilibrated for about 30 min to rt. 100 μL of CellTiter Glo reagent was added into each well, a shaker shook for 2 min, followed by standing in a dark place at rt for 10 min, and the relative light unit (RLU) was measured with a Cytation 3 microplate reader.
(§3) For example, BxPC-3, FaDu, HepG2 and other human tumor cells were selected.
(§4) For example, TROP2-positive human tumor cells such as BxPC-3 (human pancreatic cancer cell) and FaDu (human throat cancer cell), and TROP2-negative tumor cells such as HepG2 (human liver cancer cell) were selected.

[2] = system: BxPC-3 (human pancreatic cancer cell); assay: Tumor cell proliferation inhibition, BxPC-3
Protocol: as §1, §2, §3, §4

[3] = system: FaDu (human throat cancer cell); assay: Tumor cell proliferation inhibition, FaDu
Protocol: as §1, §2, §3, §4

[4] = system: ErbB2/HER2-positive human breast cancer cells BT-474; assay: Tumor cell proliferation inhibition (CellTiter Glo), BT-474
Protocol: as §1, §2

[5] = system: ErbB2/HER2-positive human gastric cancer cells NCI-N87; assay: Tumor cell proliferation inhibition (CellTiter Glo), NCI-N87
Protocol: as §1, §2

CC[C@H](C)[C@@H]([C@@H](CC(=O)N1CCC[C@H]1[C@H](OC)[C@@H](C)C(=O)N[C@H](C)[C@@H](O)c1ccccc1)OC)N(C)C(=O)[C@@H](NC(=O)[C@@H](NC)C(C)C)C(C)C [MMAE, monomethylauristatin E] (H-[NMeV]V[Dil][Dolaproine]-X1)
IC50 ([1]; HepG2, ErbB2/HER2-negative, 72 to 120 h, read-out: Proliferation Inhibition Effect on Tumor Cells (IC50)): 0.567 nM | maximum killing percentage relative to the control group ([1]; HepG2, ErbB2/HER2-negative, control puromycin 5 μM): 74.88% | maximum killing percentage relative to the control group ([1]; HepG2, TROP2-negative): 83.43% | IC50 ([1]; HepG2, TROP2-negative, Table 7, read-out: Proliferation Inhibition Action on Tumor Cells (IC50)): 0.398 nM | maximum killing percentage relative to the control group ([2]; BxPC-3): 99.56% | IC50 ([2]; BxPC-3, TROP2-positive, Table 7, read-out: Proliferation Inhibition Action on Tumor Cells (IC50)): 0.388 nM | maximum killing percentage relative to the control group [3]: 90.87% | IC50 ([3]; TROP2-positive, Table 7, read-out: Proliferation Inhibition Action on Tumor Cells (IC50)): 0.167 nM | IC50 ([4]; BT-474, ErbB2/HER2-positive, 72 to 120 h, read-out: Proliferation Inhibition Effect on Tumor Cells (IC50)): 0.272 nM | maximum killing percentage relative to the control group ([4]; BT-474, control puromycin 5 μM): 86.46% | IC50 ([5]; NCI-N87, ErbB2/HER2-positive, 72 to 120 h, read-out: Proliferation Inhibition Effect on Tumor Cells (IC50)): 0.248 nM | maximum killing percentage relative to the control group ([5]; NCI-N87, control puromycin 5 μM): 90.78%
